Four compounds from US5998654A, “Retinoic acid receptor antagonist compounds and methods” (Ligand Pharmaceuticals Incorporated, priority 1997, dated 1999) can be followed below.

Assay [1] deals with T1, RARγ (Homo sapiens, UniProt P13631).
T1 sequence (P13631 1-454): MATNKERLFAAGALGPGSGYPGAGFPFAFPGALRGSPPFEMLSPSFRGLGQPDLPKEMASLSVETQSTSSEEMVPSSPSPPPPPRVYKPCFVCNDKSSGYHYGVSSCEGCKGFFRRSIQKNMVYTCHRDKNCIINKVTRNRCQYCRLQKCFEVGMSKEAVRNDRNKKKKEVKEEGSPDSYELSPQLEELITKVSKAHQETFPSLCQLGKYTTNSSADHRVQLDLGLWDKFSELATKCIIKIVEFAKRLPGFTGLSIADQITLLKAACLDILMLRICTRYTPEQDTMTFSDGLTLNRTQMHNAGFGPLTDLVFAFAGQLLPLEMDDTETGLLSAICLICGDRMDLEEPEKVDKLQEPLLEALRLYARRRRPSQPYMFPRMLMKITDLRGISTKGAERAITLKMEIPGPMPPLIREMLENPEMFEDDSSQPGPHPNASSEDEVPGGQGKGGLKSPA
Put plainly: co-transfection assay, agonist activity on RARγ. Also noted: expressed in transfected cells; host or cells: CV-1 cells (African green monkey kidney). Particulars: CV-1 cells; read-out: EC50 agonist potency, RARγ. In kind it is cell-based. An excerpt:
(§1) This assay is described in further detail in U.S. Pat. Nos. 4,981,784 and 5,071,773, the disclosures of which are incorporated herein by reference.
(§2) In the co-transfection assay, a cloned cDNA for an IR (e.g., human RARα:, RARβ, RXRγ) under the control of a constitutive promoter (e.g., the SV 40 promoter) is introduced by transfection (a procedure to induce cells to take up foreign genes) into a background cell substantially devoid of endogenous IRs. This introduced gene directs the recipient cells to make the IR protein of interest. A second gene is also introduced (co-transfected) into the same cells in conjunction with the IR gene. This second gene, comprising the cDNA for a reporter protein, such as firefly luciferase (LUC), is controlled by an appropriate hormone responsive promoter containing a hormone response element (HRE). This reporter plasmid functions as a reporter for the transcription-modulating activity of the target IR. Thus, the reporter acts as a surrogate for the products (mRNA then protein) normally expressed by a gene under control of the target receptor and its native hormone.
(§3) The co-transfection assay can detect small molecule agonists or antagonists of target IRs. Exposing the transfected cells to an agonist ligand compound increases reporter activity in the transfected cells. This activity can be conveniently measured, e.g., by increasing luciferase production, which reflects compound-dependent, IR-mediated increases in reporter transcription. To detect antagonists, the co-transfection assay is carried out in the presence of a constant concentration of an agonist to the target IR (e.g., all-trans retinoic acid for RARα) known to induce a defined reporter signal. Increasing concentrations of a suspected antagonist will decrease the reporter signal (e.g., luciferase production). The co-transfection assay is therefore useful to detect both agonists and antagonists of specific IRs. Furthermore, it determines not only whether a compound interacts with a particular IR, but whether this interaction mimics (agonizes) or blocks (antagonizes) the effects of the native regulatory molecules on target gene expression, as well as the specificity and strength of this interaction.
CV-1 cells (African green monkey kidney fibroblasts) were cultured in the presence of Dulbecco's Modified Eagle Medium (DMEM) supplemented with 10% charcoal resin-stripped fetal bovine serum then transferred to 96-well microtiter plates one day prior to transfection. […]

For assay [2], the target named is T2, RARβ (Homo sapiens, UniProt P10826).
T2 sequence (P10826 1-448 isoform P10826-2): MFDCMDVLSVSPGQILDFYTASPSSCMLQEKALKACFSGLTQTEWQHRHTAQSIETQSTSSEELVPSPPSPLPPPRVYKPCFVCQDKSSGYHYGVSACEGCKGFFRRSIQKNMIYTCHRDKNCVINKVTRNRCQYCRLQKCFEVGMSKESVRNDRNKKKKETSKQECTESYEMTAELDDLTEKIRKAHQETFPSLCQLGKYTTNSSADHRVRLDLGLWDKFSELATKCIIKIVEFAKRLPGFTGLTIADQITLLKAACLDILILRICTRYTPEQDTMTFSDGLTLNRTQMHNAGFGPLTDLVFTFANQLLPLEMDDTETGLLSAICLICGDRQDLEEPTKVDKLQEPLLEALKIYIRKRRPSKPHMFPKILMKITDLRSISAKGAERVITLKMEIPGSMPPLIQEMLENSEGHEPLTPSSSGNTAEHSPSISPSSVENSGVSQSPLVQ
Put plainly: co-transfection assay, antagonist activity on RARβ. More on the design: expressed in transfected cells; host or cells: CV-1 cells (African green monkey kidney). Particulars: CV-1 cells, in presence of known RAR agonist TTNPB; for pIC50: read-out: IC50 antagonist potency, RARβ. Type of assay: cell-based.
Source text: as §1, §2, §3
CV-1 cells (African green monkey kidney fibroblasts) were cultured in the presence of Dulbecco's Modified Eagle Medium (DMEM) supplemented with 10% charcoal resin-stripped fetal bovine serum then transferred to 96-well microtiter plates one day prior to transfection.
To determine RAR and/or RXR agonist activity of the compounds of the present invention, the CV-1 cells were transiently transfected by calcium phosphate coprecipitation according to the procedure of Berger et al., 41 J. Steroid Biochem. Mol. Biol., 733 (1992) with the following receptor expressing plasmids: pRShRARα: Giguere et al., 330 Nature, 624 (1987); pRShRARβ and pRShRARγ, Ishikawa et al., 4 Mol. Endocrin., 837 (1990); pRShRXRα, Mangelsdorf et al., 345 Nature, 224 (1990); and pRSmRXRβ and pRSmRXRγ, Mangelsdorf et al., 6 Genes & Devel., 329 (1992), the disclosures of which are herein incorporated by reference. Each of these receptor expressing plasmids was co-transfected at a concentration of 5 ng/well, along with a basal reporter plasmid at 100 ng/well, the internal control plasmid pRS-β-Gal at 50 ng/well and filler DNA, pGEM at 45 ng/well.
The basal reporter plasmid D-MTV-LUC (Hollenberg and Evans, 55 Cell, 899 (1988), the disclosure of which is herein incorporated by reference) containing two copies of the TRE-palindromic response element described in Umesono et al., 336 Nature, 262 (1988), the disclosure of which is herein incorporated by reference, was used in transfections for the RARs, and the reporter plasmid CRBPIIFKLUC, which contains an RXRE (retinoid X receptor response element, as described in Mangelsdorf et al., 66 Cell, 555 (1991), the disclosure of which is herein incorporated by reference), was used in transfections for the RXRs.

Each structure is given as a SMILES string. pEC50, pIC50: −log10 of the molar value.

The term pEC50 denotes −log10 of the EC50, conventionally taken in molar units. A word on the pIC50: it is −log10 of the IC50, conventionally taken in molar units. For `CCCCOc1c(C(C)(C)C)cc(/C(C)=C/C=C/C(C)=C/C(=O)O)cc1C(C)(C)C` [Compound 7, 2E, 4E, 6E-[7-(3,5-Di-t-butyl-4-n-butoxyphenyl)-3-methyl]-octa-2,4,6-trienoic acid], in assay [1], the pEC50 is < 5.00. Besides, in assay [2], the “efficacy of antagonist, % of maximal inhibition, RARβ (in parentheses after IC50)” value is reported as 85% and the pIC50 is 8.40.

As to `CCCOc1c(C(C)(C)C)cc(/C(C)=C/C=C/C(C)=C/C(=O)O)cc1C(C)(C)C` [Compound 8, 2E, 4E, 6E-[7-(3,5-Di-t-butyl-4-n-propoxyphenyl)-3-methyl]-octa-2,4,6-trienoic acid], the negative logarithm of the EC50 (pEC50) in assay [1] is < 5.00. Besides, in assay [2], the “efficacy of antagonist, % of maximal inhibition, RARβ (in parentheses after IC50)” value came to 85% and the pIC50 is 9.00.

Regarding `CCCCCOc1c(C(C)(C)C)cc(/C(C)=C/C=C/C(C)=C/C(=O)O)cc1C(C)(C)C` [Compound 9, 2E, 4E, 6E-[7-(3,5-Di-t-butyl-4-n-pentoxyphenyl)-3-methyl]-octa-2,4,6-trienoic acid], in assay [1], the pEC50 was < 5.00. Further, in assay [2], the “efficacy of antagonist, % of maximal inhibition, RARβ (in parentheses after IC50)” value is on record as 86% and the pIC50 was 7.77.

With `C=C(c1ccccc1)c1cc(/C(C)=C/C=C/C(C)=C/C(=O)O)cc(C(C)(C)C)c1` [Compound 17, (2E,4E,6E)-7-[3-t-butyl-5-(1-phenyl-vinyl)-phenyl]-3-methyl-octa-2,4,6-trienoic acid], the pEC50 in assay [1] was < 5.00. In assay [2], the “efficacy of antagonist, % of maximal inhibition, RARβ (in parentheses after IC50)” value is listed as 90% and the negative logarithm of the IC50 (pIC50) was 8.30.
